# From patent US20060052345A1, “Quinazolinone compounds as calcilytics” (NPS Pharmaceuticals, Inc., priority 2002, published 2006)
# Columns and labels:
# [1] = Plasma levels of compound 17 after intravenous injection in normal rats (LC-MS/MS); assay type: in vivo, rat; settings: 3 or 10 μmol/kg intravenous injection, normal conscious male Sprague-Dawley rats, FIG. 1
# Method: (§1) 2-(2-Hydroxy-phenyl)-3-phenethyl-3H-quinazolin-4-one (compound 17) (3 or 10 μmol/kg) or vehicle was administered by intravenous injection over about 15 seconds to normal conscious male Sprague-Dawley rats with chronic indwelling arterial and venous catheters. Arterial blood samples were collected immediately before, and at 1, 5, 10, and 30 min after the start of the injection for measurement of the levels of parathyroid hormone (PTH), ionized calcium (Ca^2+) and compound 17 in plasma. PTH was measured using a specific rat PTH (1-84) ELISA (Immutopics, San Clemente, Calif.) and compound 17 was quantified by an LC-MS/MS method. Positive ions were generated by turbo ionspray and were subsequently fragmented by collision-induced dissociation, so that compound 17 could be detected by selected-reaction monitoring.
# [2] = test system: parathyroid hormone (PTH); experiment: Plasma PTH levels after intravenous injection in normal rats (rat PTH (1-84) ELISA); assay type: in vivo; settings: 3 or 10 μmol/kg intravenous injection, normal conscious male Sprague-Dawley rats, FIG. 2
# Method: as §1
# ionized calcium (Ca^2+) = experiment: Plasma ionized calcium levels after intravenous injection in normal rats; assay type: in vivo, rat; settings: 3 or 10 μmol/kg intravenous injection, normal conscious male Sprague-Dawley rats, up to 30 min (not shown)
# Method: as §1
smiles,measurement,setting,value
"O=c1c2ccccc2nc(-c2ccccc2O)n1CCc1ccccc1 [compound 17, 2-(2-Hydroxy-phenyl)-3-phenethyl-3H-quinazolin-4-one]",course of plasma levels of compound after the maximum,[1],declined rapidly during the next 10-30 min
same,time after injection at which plasma levels of compound were maximal,[1],1 min
same,effect on plasma PTH levels,[2],"rapid, but transient dose-related increase"
same,time after injection at which plasma PTH levels were maximal,[2],1 min
same,time after injection by which plasma PTH levels had returned to pre-dose levels,[2],≤ 10 min
same,changes in plasma Ca^2+ levels,ionized calcium (Ca^2+),no consistent changes
